From patent publication US20050009840A1 (SUGEN, INC., priority 2003, published 2005)
“And” between values parts separate entries of the source, which are not always exact repeats. Equal values may be shown once.

The compounds below were run against T1, Met kinase domain (GST fusion protein) (Homo sapiens, UniProt P08581) (assay: Met transphosphorylation assay (ELISA, poly(glu-tyr) substrate)). Conditions: Table 2; read-out: Met IC50.
T1 construct: Purified GST fusion protein containing the Met kinase domain
Type: biochemical
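Further: Cell-free ELISA with plate-bound poly(Glu:Tyr 4:1) phosphorylated by GST-fused Met kinase domain plus ATP and Mn2+, phosphotyrosine detected by anti-phosphotyrosine antibody with HRP and ABTS read-out.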

T1 sequence (P08581 1078-1345 limits assumed): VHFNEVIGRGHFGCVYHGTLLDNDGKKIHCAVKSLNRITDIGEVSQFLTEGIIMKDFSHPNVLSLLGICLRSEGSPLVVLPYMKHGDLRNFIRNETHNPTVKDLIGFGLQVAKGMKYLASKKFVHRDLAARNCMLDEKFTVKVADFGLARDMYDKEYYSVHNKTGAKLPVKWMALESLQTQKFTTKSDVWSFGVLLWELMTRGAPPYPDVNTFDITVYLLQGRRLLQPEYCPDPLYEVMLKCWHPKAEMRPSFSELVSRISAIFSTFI

| SMILES | IC50 |
| --- | --- |
| Nc1ncc(-c2ccc(C(=O)NCCN3CCOCC3)cc2)cc1OCc1ccc(F)cc1Cl [Example I-209, 4-[6-Amino-5-(2-chloro-4-fluoro-benzyloxy)-pyridin-3-yl]-N-(2-morpholin-4-yl-ethyl)-benzamide] | 11000 nM |
| Nc1ncc(-c2ccc(C(=O)NCCCN3CCOCC3)cc2)cc1OCc1ccc(F)cc1Cl [Example I-210, 4-[6-Amino-5-(2-chloro-4-fluoro-benzyloxy)-pyridin-3-yl]-N-(3-morpholin-4-yl-propyl)-benzamide] | 5800 nM |
| Nc1ncc(-c2ccc(C(=O)O)cc2)cc1OCc1c(F)ccc(F)c1Cl [Example I-211, 4 [6 Amino-5-(2-chloro-3,6-difluoro-benzyloxy)-pyridin-3-yl]-benzoic acid] | 350 nM |
| CN1CCN(C(=O)c2ccc(-c3cnc(N)c(OCc4c(F)ccc(F)c4Cl)c3)cc2)CC1 [Example I-212, {4-[6-Amino-5-(2-chloro-3,6-difluoro-benzyloxy)-pyridin-3-yl]-phenyl}-(4-methyl-piperazin-1-yl)-methanone] | 63 nM |
| Nc1ncc(-c2ccc(C(=O)N3CCC(N)CC3)cc2)cc1OCc1c(F)ccc(F)c1Cl [Example I-214, {4-[6-Amino-5-(2-chloro-3,6-difluoro-benzyloxy)-pyridin-3-yl]-phenyl}-(4-amino-piperidin-1-yl)-methanone] | 100 nM |
| CN(C)[C@H]1CCN(C(=O)c2ccc(-c3cnc(N)c(OCc4c(F)ccc(F)c4Cl)c3)cc2)C1 [Example I-217, {4-[6-Amino-5-(2-chloro-3,6-difluoro-benzyloxy)-pyridin-3-yl]-phenyl}-[(3S)-3-dimethylamino-pyrrolidin-1-yl]-methanone] | 120 nM |
| Nc1ncc(-c2ccc(C(=O)N3CC[C@@H](N)C3)cc2)cc1OCc1c(F)ccc(F)c1Cl [Example I-218, {4-[6-Amino-5-(2-chloro-3,6-difluoro-benzyloxy)-pyridin-3-yl]-phenyl}-[(3R)-3-amino-pyrrolidin-1-yl]-methanone] | 53 nM |
| Nc1ncc(-c2ccc(C(=O)N3CC[C@H](N)C3)cc2)cc1OCc1c(F)ccc(F)c1Cl [Example I-219, {4-[6-Amino-5-(2-chloro-3,6-difluoro-benzyloxy)-pyridin-3-yl]-phenyl}-[(3S)-3-amino-pyrrolidin-1-yl]-methanone] | 95 nM |
| CN1CCC(NC(=O)c2ccc(-c3cnc(N)c(OCc4c(F)ccc(F)c4Cl)c3)cc2)CC1 [Example I-220, 4-[6-Amino-5-(2-chloro-3,6-difluoro-benzyloxy)-pyridin-3-yl]-N-(1-methyl-piperidin-4-yl)-benzamide] | 110 nM |
| Nc1ncc(-c2ccc(C(=O)NCCN3CCCC3)cc2)cc1OCc1c(F)ccc(F)c1Cl [Example I-221] | 180 nM |
| Nc1ncc(-c2ccc(C(=O)NCCCN3CCCC3)cc2)cc1OCc1c(F)ccc(F)c1Cl [Example I-222] | 190 nM |
| Nc1ncc(-c2ccc(C(=O)NCCN3CCOCC3)cc2)cc1OCc1c(F)ccc(F)c1Cl [Example I-223] | 165 nM |
| Nc1ncc(-c2ccc(C(=O)NCCCN3CCOCC3)cc2)cc1OCc1c(F)ccc(F)c1Cl [Example I-224, 4-[6-Amino-5-(2-chloro-3,6-difluoro-benzyloxy)-pyridin-3-yl]-N-(3-morpholin-4-yl-propyl)-benzamide] | 280 nM |
| Nc1ncc(-c2cccc(C(=O)O)c2)cc1OCc1c(F)ccc(F)c1Cl [Example I-225, 3-[6-Amino-5-(2-chloro-3,6-difluoro-benzyloxy)-pyridin-3-yl]-benzoic acid] | 3700 nM and 600 nM |
| CN1CCN(C(=O)c2cccc(-c3cnc(N)c(OCc4c(F)ccc(F)c4Cl)c3)c2)CC1 [Example I-226, {3-[6-Amino-5-(2-chloro-3,6-difluoro-benzyloxy)-pyridin-3-yl]-phenyl}-(4-methyl-piperazin-1-yl)-methanone] | 68 nM |
| Nc1ncc(-c2cccc(C(=O)N3CCC(N)CC3)c2)cc1OCc1c(F)ccc(F)c1Cl [Example I-228, {3-[6-Amino-5-(2-chloro-3,6-difluoro-benzyloxy)-pyridin-3-yl]-phenyl}-(4-amino-piperidin-1-yl)-methanone] | 230 nM |
| CN(C)[C@H]1CCN(C(=O)c2cccc(-c3cnc(N)c(OCc4c(F)ccc(F)c4Cl)c3)c2)C1 [Example I-231, {-[6-Amino-5-(2-chloro-3,6-difluoro-benzyloxy)-pyridin-3-yl]-phenyl}-[(3S)-3-dimethylamino-pyrrolidin-1-yl]-methanone] | 128 nM |
| Nc1ncc(-c2cccc(C(=O)N3CC[C@@H](N)C3)c2)cc1OCc1c(F)ccc(F)c1Cl [Example I-232, {3-[6-Amino-5-(2-chloro-3,6-difluoro-benzyloxy)-pyridin-3-yl]-phenyl}-[(3R)-3-amino-pyrrolidin-1-yl]-methanone] | 120 nM |
| Nc1ncc(-c2cccc(C(=O)N3CC[C@H](N)C3)c2)cc1OCc1c(F)ccc(F)c1Cl [Example I-233, {3-[6-Amino-5-(2-chloro-3,6-difluoro-benzyloxy)-pyridin-3-yl]-phenyl}-[(3S)-amino-pyrrolidin-1-yl]-methyanone] | 120 nM |

| SMILES | IC50 |
| --- | --- |
| Nc1ncc(-c2cccc(C(=O)NCCN3CCCC3)c2)cc1OCc1c(F)ccc(F)c1Cl [Example I-235, 3-[6-Amino-5-(2-chloro-3,6-difluoro-benzyloxy)-pyridin-3-yl]-N-(2-pyrrolidin-1-yl-ethyl)-benzamide] | 260 nM |
| Nc1ncc(-c2cccc(C(=O)NCCCN3CCCC3)c2)cc1OCc1c(F)ccc(F)c1Cl [Example I-236, 3-[6-Amino-5-(2-chloro-3,6-difluoro-benzyloxy)-pyridin-3-yl]-N-(3-pyrrolidin-1-yl-propyl)-benzamide] | 280 nM |
| Nc1ncc(-c2cccc(C(=O)NCCN3CCOCC3)c2)cc1OCc1c(F)ccc(F)c1Cl [Example I-237, 3-[6-Amino-5-(2-chloro-3,6-difluoro-benzyloxy)-pyridin-3-yl]-N-(2-morpholin-4-yl-ethyl)-benzamide] | 350 nM |
| Nc1ncc(-c2cccc(C(=O)NCCCN3CCOCC3)c2)cc1OCc1c(F)ccc(F)c1Cl [Example I-238, 3-[6-Amino-5-(2-chloro-3,6-difluoro-benzyloxy)-pyridin-3-yl]-N-(3-morpholin-4-yl-propyl)-benzamide] | 350 nM |
| CC(=O)N1CCN(CCNC(=O)c2cccc(-c3cnc(N)c(OCc4c(F)ccc(F)c4Cl)c3)c2)CC1 [Example I-239, N-[2-(4-Acetyl-piperazin-1-yl)-ethyl]-3-[6-amino-5-(2-chloro-3,6-difluoro-benzyloxy)-pyridin-3-yl]-benzamide] | 100 nM |
| Nc1ncc(-c2ccc(N3CCCS3(=O)=O)cc2)cc1OCc1c(F)ccc(F)c1Cl [Example I-240, 3-(2-Chloro-3,6-difluoro-benzyloxy)-5-[4-(1,1-dioxo-1λ^6-isothiazolidin-1-yl)-phenyl]-pyridin-2-ylamine] | 100 nM |
| Nc1ncc(-c2ccc(N3CCCS3(=O)=O)cc2)cc1OCc1c(Cl)cccc1Cl [Example I-241] | 67 nM |
| Nc1ncc(-c2ccc(N3CCCS3(=O)=O)cc2)cc1OCc1c(F)cccc1C(F)(F)F [Example I-242, 5-[4-(1,1-Dioxo-1λ^6-isothiazolidin-2-yl)-phenyl]-3-(2-fluoro-6-trifluoromethyl-benzyloxy)-pyridin-2-ylamine] | 140 nM |
| CCN(CC)CCS(=O)(=O)Nc1ccc(-c2cnc(N)c(OCc3c(F)ccc(F)c3Cl)c2)cc1 [Example I-243, 2-diethylamino-ethanesulfonic acid {4-[6-amino-5-(2-chloro-3,6-difluoro-benzyloxy)-pyridin-3-yl]-phenyl)amide] | 43 nM |
| Nc1ncc(-c2ccc(NS(=O)(=O)CCNC3CC3)cc2)cc1OCc1c(F)ccc(F)c1Cl [Example I-244, 2-Cydopropylamino-ethanesulfonic acid {4-[6-amino-5-(2-chloro-3,6-difluoro-benzyloxy)-pyridin-3-yl]-phenyl}-amide] | 81 nM |
| Nc1ncc(-c2ccc(NS(=O)(=O)CCN3CCCC3)cc2)cc1OCc1c(F)ccc(F)c1Cl [Example I-245] | 82 nM |
| Nc1ncc(-c2ccc(NS(=O)(=O)CCN3CCC(O)CC3)cc2)cc1OCc1c(F)ccc(F)c1Cl [Example I-246, 2-(4-Hydoxy-piperidin-1-yl)-ethanesulfonic acid {4-[6-amino-5-(2-chloro-3,6-difluoro-benzyloxy)-pyridin-3-yl]-phenyl}-amide] | 135 nM |
| Nc1ncc(-c2ccc(NS(=O)(=O)CCN3CCOCC3)cc2)cc1OCc1c(F)ccc(F)c1Cl [Example I-247, 2-Morpholin-4-yl-ethanesulfonic acid {4-[6-amino-5-(2-chloro-3,6-difluoro-benzyloxy)-pyridin-3-yl]-phenyl}-amide] | 310 nM |
| Nc1ncc(-c2ccc(NS(=O)(=O)CCN3CCCCC3)cc2)cc1OCc1c(F)ccc(F)c1Cl [Example I-248, 2-Pipendin-1-yl-ethanesulfonic acid {4-[6-amino-5-(2-chloro-3,6-difluoro-benzyloxy)-pyridin-3-yl]-phenyl}-amide] | 114 nM |
| CN(C)CCS(=O)(=O)Nc1ccc(-c2cnc(N)c(OCc3c(F)ccc(F)c3Cl)c2)cc1 [Example I-249, 2-Dimethylamino-ethanesulfonic acid {4-[6-amino-5-(2-chloro-3,6-difluoro-benzyloxy)-pyridin-3-yl]-phenyl}-amide] | 98 nM |
| CC(=O)N1CCN(CCS(=O)(=O)Nc2ccc(-c3cnc(N)c(OCc4c(F)ccc(F)c4Cl)c3)cc2)CC1 [Example I-250, 2-(4-Acetyl-piperazin-1-yl)-ethanesulfonic acid {4-[6-amino-5-(2-chloro-3,6-difluoro-benzyloxy)-pyridin-3-yl]-phenyl}-amide] | 420 nM |
| Nc1ncc(-c2ccc(NS(=O)(=O)CCNCC3CC3)cc2)cc1OCc1c(F)ccc(F)c1Cl [Example I-251, 2-(Cyclopropylmethyl-amino)-ethanesulfonic acid {4-[6-amino-5-(2-chloro-3,6-difluoro-benzyloxy)-pyridin-3-yl]-phenyl}-amide] | 75 nM |
| Nc1ncc(-c2ccc(NS(=O)(=O)CCN3CC[C@@H](O)C3)cc2)cc1OCc1c(F)ccc(F)c1Cl [Example I-252, 2-[(3R)-3-Hydroxy-pyrrolidin-1-yl]-ethanesulfonic acid {4-[6-amino-5-(2-chloro-3,6-difluoro-benzyloxy)-pyridin-3-yl]-phenyl}-amide] | 125 nM |
